The values below come from paper PMC11808136, “Screening and identification of host signaling pathways for alleviating influenza-induced production of pro-inflammatory cytokines, IP-10, IL-8, and MCP-1, using a U937 cell-based influenza model” (Frontiers in Microbiology, 2025).

Molecules are shown by their SMILES. Like-named read-outs stand apart in the source and are kept apart here.

Data set [1] concerns MCP-1 production in influenza virus-infected U937 cells (H7N8). The data set is described as follows: cells. The format is cell-based, Human.
The test system of data set [2] is IP-10 production in influenza virus-infected U937 cells (H1N1). The data set is described as follows: cells. The format is cell-based. Particulars: for EC50: read-out: EC50 IP-10.
Data set [3] has as its system STAT1 phosphorylation (p-STAT1). The format is cell-based, Human.
The test system of data set [4] is IP-10 production in influenza virus-infected U937 cells (H3N2). The data set can be described thus: cells. The format is cell-based, Human.
The test system of data set [5] is IL-8 production in influenza virus-infected U937 cells (H7N8). The data set is described as follows: cells. The format is cell-based, Human.
The subject of data set [6] is IP-10 production in influenza virus-infected U937 cells (H7N8). The data set is described as follows: cells. The format is cell-based, Human.
Data set [7] deals with phosphorylation of p38 (p-p38). The data set is described as follows: Western blot of phosphorylated p38 in influenza-infected U937 cells. The format is cell-based, Human. On the procedure: (§1) Figure 6 TKIs repress cytokine production by suppressing the p38 pathway. […] Cells were lysed 24 h post-infection, and the levels of phosphorylated p38 and ERK (p-p38 and p-ERK) and total p38 and ERK were assessed by western blot. A quantification of phosphorylated p38 levels for each drug treatment was included in the right panel of each figure.
(§2) Cells were homogenized in RIPA lysis buffer containing a 1% protease inhibitor cocktail (Roche) to extract total protein. Equal amounts of protein homogenates were separated by SDS-PAGE (Bio-Rad) and transferred onto polyvinylidene difluoride membranes (pore size […]; Bio-Rad). The membranes were then blotted with monoclonal antibodies against GAPDH (1:1000, ZSGB-BIO), p38, phosphor-p38, ERK, phospho-ERK, STAT1, phosphor-STAT1 (1:1000; Cell Signaling Technology), STAT3, and phosphor-STAT3 (1:1000; Cell Signaling Technology), respectively. Protein levels were detected with horseradish peroxidase-tagged secondary antibodies and enhanced chemiluminescence western blot reagents (Advansta), followed by visualization using an enhanced chemiluminescence system (AlphaEase FluorChem System, Alpha Innotech Corp.). Bands were quantified using ImageJ (Ver. 1.46; NIH, Bethesda, MD).
Background: Immunoblotting shows a protein as a band on a membrane.

The test system of data set [8] is MCP-1 production in influenza virus-infected U937 cells (H1N1). The data set can be described thus: cells. The format is cell-based. Particulars: for EC50: read-out: EC50 MCP-1; for IC50: read-out: IC50 MCP-1.
Data set [9] concerns MCP-1 production in influenza virus-infected U937 cells (H3N2). The data set is described as follows: cells. The format is cell-based, Human.
The subject of data set [10] is IL-8 production in influenza virus-infected U937 cells (H3N2). The data set can be described thus: cells. The format is cell-based, Human.
In data set [11] the test system is IL-8 production in influenza virus-infected U937 cells (H1N1). The data set is described as follows: cells. The format is cell-based, Human. Conditions: for EC50: read-out: EC50 IL-8.
The subject of data set [12] is ERK phosphorylation (p-ERK). The data set is described as follows: Western blot of phosphorylated ERK in influenza-infected U937 cells. The format is cell-based, Human. On the procedure:
Figure 5 Raf/MEK/ERK and p38 signal pathways are involved in the regulation of cytokines in U937 cells. (A–C) Determination of inhibition rates on IL-8, IP-10, and MCP-1 by each compound in the MAPK group and the distribution of targets between subgroups. U937 cells were infected with influenza A/PuertoRico/8/1934 virus (MOI = 0.1) in the presence of 10 μM of each inhibitor and then incubated at 37°C for 48 h. The distribution of the targets of all the inhibitors in the MAPK group was then analyzed and categorized into subgroups. […] The supernatants were harvested 48 h post-infection, and the levels of IL-8, MCP-1, and IP-10 were measured by AlphaLISA. (E) The cells were treated as in (C) except being lysed 24 h post-infection, and the levels of phosphorylated STAT1, p38, ERK (p-STAT1, p-p38, p-ERK), total STAT1, p38, ERK, and viral protein HA were assessed by western blot. (F) A quantitative analysis of the relative levels of the phosphorylated STAT1, p38, ERK (p-STAT1, p-p38, p-ERK) in (E). The data are representative of at least three independent experiments. n.s. no significance; *p < 0.05; **p < 0.01; ***p < 0.001.
as §1
as §2, with “The membranes were then blotted with monoclonal antibodies against GAPDH (1:1000, ZSGB-BIO), p38, phosphor-p38, ERK, phospho-ERK, STAT1, phosphor-STAT1 (1:1000; Cell Signaling Technology), STAT3, and phosphor-STAT3 (1:1000; Cell Signaling Technology), respectively.” left out

Another data set in a line: in vitro. Conditions: human, CC50, secondary screen, Supplemental Table 1.
Data set [13] deals with influenza virus infection. More on the design: method as in Florence et al., 2018; Chen et al., 2019. Particulars: without compromising viral titers; ref Florence et al., 2018; Chen et al., 2019; cited from earlier work.
The next data set addresses T1, JAK2 (Homo sapiens, UniProt O60674).
T1 construct: purchased KinaseProfiler (Eurofin, Brussels, Belgium)
The data set is described as follows: Cell-free kinase activity assay, JAK2. The format is biochemical. Conditions: cell-free kinase assay.

The target of a further data set is JAK1 (Homo sapiens, UniProt P23458). The data set is described as follows: Cell-free kinase activity assay, JAK1. Conditions: cell-free kinase assay.
JAK1, sequence (P23458 whole entry): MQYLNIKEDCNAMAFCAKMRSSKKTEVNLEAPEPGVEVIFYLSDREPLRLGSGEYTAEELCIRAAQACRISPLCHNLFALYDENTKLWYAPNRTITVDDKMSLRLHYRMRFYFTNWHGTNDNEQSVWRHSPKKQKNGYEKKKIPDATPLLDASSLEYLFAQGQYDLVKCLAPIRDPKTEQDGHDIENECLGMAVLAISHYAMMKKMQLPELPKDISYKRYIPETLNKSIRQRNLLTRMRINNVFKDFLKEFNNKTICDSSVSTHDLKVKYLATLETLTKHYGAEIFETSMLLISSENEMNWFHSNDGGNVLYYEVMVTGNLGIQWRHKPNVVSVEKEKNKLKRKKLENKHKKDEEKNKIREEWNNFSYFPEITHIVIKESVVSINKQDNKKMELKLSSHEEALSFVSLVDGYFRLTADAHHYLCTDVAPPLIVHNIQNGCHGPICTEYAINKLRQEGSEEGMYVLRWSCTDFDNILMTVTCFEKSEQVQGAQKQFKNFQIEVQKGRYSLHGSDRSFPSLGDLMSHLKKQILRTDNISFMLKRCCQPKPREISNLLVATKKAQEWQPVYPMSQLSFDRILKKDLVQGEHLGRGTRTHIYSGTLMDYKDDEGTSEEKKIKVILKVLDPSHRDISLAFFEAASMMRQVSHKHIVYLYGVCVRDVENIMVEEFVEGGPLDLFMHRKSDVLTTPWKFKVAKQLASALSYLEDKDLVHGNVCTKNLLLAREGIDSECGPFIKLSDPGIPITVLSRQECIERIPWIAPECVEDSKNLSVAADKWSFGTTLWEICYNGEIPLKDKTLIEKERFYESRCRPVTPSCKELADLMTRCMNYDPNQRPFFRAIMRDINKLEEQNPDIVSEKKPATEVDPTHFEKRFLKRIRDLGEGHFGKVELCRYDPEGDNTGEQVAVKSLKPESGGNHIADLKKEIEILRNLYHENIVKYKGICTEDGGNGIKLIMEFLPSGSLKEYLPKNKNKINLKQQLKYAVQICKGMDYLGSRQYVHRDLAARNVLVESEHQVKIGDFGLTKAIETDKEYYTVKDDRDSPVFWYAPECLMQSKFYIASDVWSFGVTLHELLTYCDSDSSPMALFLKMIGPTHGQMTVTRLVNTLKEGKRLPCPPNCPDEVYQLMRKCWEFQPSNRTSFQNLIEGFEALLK
Data set [14] deals with STAT3 phosphorylation (p-STAT3). The data set is described as follows: Western blot of phosphorylated STAT3 in influenza-infected U937 cells. The format is cell-based, Human. Conditions: 1 μM ponatinib, 24 h. On the procedure: Figure 3 JAK is essential for regulating the production of pro-inflammatory cytokines induced by influenza infection in U937 cells. Inhibition rates on IL-8 (A), IP-10 (B), and MCP-1 (C) by each compound in the PTK group are categorized based on targets. […] The cells were then lysed after 24 h incubation at 37°C, and the levels of phosphorylated STAT1 (p-STAT1), total STAT1, phosphorylated STAT3 (p-STAT3), and total STAT3 were assessed by western blot.
as §2

Setting [15] is: secondary screen, Supplemental Table 1.
Setting [16] is: Homo sapiens, U-937, secondary screen, Supplemental Table 1.

T1 sequence (O60674 whole entry): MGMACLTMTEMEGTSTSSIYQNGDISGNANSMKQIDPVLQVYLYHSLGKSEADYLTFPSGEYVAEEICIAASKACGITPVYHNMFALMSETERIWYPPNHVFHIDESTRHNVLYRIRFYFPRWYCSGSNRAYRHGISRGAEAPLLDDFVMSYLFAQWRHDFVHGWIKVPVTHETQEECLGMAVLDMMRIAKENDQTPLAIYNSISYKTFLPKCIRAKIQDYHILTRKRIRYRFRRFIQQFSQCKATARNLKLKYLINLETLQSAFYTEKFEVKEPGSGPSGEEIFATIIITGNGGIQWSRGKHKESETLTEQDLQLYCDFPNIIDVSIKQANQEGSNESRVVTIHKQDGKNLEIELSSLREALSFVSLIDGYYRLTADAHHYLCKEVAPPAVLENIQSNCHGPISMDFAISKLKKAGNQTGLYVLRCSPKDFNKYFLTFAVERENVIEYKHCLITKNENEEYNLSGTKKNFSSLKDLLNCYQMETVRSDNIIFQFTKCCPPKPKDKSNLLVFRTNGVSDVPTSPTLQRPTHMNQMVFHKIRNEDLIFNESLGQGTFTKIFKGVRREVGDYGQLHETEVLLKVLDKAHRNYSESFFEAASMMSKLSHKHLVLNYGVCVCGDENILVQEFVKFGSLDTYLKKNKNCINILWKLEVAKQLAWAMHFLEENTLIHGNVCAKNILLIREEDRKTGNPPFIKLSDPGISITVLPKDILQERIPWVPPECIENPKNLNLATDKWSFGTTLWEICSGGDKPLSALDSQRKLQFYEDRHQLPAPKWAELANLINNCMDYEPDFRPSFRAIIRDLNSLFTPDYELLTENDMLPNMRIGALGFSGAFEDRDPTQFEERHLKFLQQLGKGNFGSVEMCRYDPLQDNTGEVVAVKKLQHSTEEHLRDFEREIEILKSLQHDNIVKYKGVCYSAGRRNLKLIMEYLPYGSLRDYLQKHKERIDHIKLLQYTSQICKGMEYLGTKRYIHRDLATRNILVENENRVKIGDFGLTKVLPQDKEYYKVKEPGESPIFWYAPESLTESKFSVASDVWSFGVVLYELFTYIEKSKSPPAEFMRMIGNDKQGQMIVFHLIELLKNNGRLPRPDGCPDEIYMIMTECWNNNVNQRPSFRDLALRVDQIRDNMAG

As usually defined, the EC50 is the concentration at which the effect is half-maximal. For orientation: IC50 means the point on the concentration scale where inhibition reaches its midpoint. Consider `Cc1ccc(Nc2ncc3c(n2)N(C)C(=O)N(c2cc(NC(=O)c4cccc(C(F)(F)F)c4)ccc2C)C3)cn1` [GNF-7], for which the EC50 in data set [1] (read-out: EC50 MCP-1) was 109 nM; in data set [2] (U937 cells infected with H1N1) it was 71 nM; in [2] (setting [15]), 20 nM; in [4], 1 nM; in [5] (read-out: EC50 IL-8) it was 14 nM; in [6] (read-out: EC50 IP-10), 5 nM. The EC50 is 18 nM in data set [8] (U937 cells infected with H1N1); 10 nM in data set [8] (setting [15]); 14 nM in data set [9]; 27 nM in data set [10]; 19 nM in data set [11]; below 5 nM in [11] (setting [15]). In [3], the STAT1 phosphorylation levels entry is on record as “significantly reduced”. Further, the CC50 in the data set on U937 cells turned out to be 13600 nM; in the data set on U937 cells (U937 cells, Table 1 section H1N1) it was 13600 nM; in the data set on U937 cells (U937 cells, Table 1 section H3N2), 13600 nM. For the same compound, the maximum non-toxic concentration in the data set with U937 cells turned out to be 1 µM. The IC50 was 10 nM in [7] (phosphorylation of p38, western blot, Table 4, read-out: IC50 p-p38); below 20 nM in [8] (production of MCP-1 in U937 cells infected with influenza virus, Table 4); below 20 nM in [11]. Further, the “phosphorylation level of ERK” value in data set [12] is listed as “promoted”.

Turning to `C=CC(=O)N1CCC[C@@H](n2nc(-c3ccc(Oc4ccccc4)cc3)c3c(N)ncnc32)C1` [Ibrutinib (PCI-32765), Ibrutinib], the CC50 in “in vitro” was above 100000 nM. Further, the “protection of mice from lethal influenza infection” value in data set [13] is recorded as “protecting mice from lethal influenza infection”. The EC50 in [11] (setting [16]) turned out to be 1220 nM.

Turning to `Cc1ccc(C(=O)Nc2ccc(CN3CCN(C)CC3)c(C(F)(F)F)c2)cc1C#Cc1cnc2cccnn12` [Ponatinib], the EC50 was determined as 345 nM in data set [1] (Homo sapiens, U-937, read-out: EC50 MCP-1); 60 nM in data set [2] (setting [16]); 270 nM in [2] (Homo sapiens, U-937); 59 nM in [4] (Homo sapiens, U-937); 833 nM in data set [5] (Homo sapiens, U-937, read-out: EC50 IL-8); 833 nM in data set [6] (Homo sapiens, U-937, read-out: EC50 IP-10). The EC50 was below 5 nM in [8] (setting [16]); 385 nM in [8] (Homo sapiens, U-937); 625 nM in data set [9] (Homo sapiens, U-937); 714 nM in data set [10] (Homo sapiens, U-937); below 5 nM in data set [11] (setting [16]); 294 nM in data set [11] (Homo sapiens, U-937). Further, the JAK2 activity result on JAK2 is given as “weaker effect”. Moreover, the IC50 amounted to 250 nM in data set [2] (Homo sapiens, U-937, read-out: IC50 IP-10); 180 nM in data set [7] (Homo sapiens, U-937, read-out: IC50 p-p38); 400 nM in data set [8] (Homo sapiens, U-937); 300 nM in data set [11] (Homo sapiens, U-937). The JAK1 activity entry on JAK1 is given as “directly inhibit”. For the same compound, the STAT3 phosphorylation result in [14] was “limited inhibition”. For the same compound, in data set [3], the STAT1 phosphorylation levels result is reported as “significantly reduced”. Moreover, the maximum non-toxic concentration in the data set on U937 cells (human) amounted to 1 µM. Also, in [13], the “protection of mice from lethal influenza infection” value is “protecting mice from lethal influenza infection”. Moreover, the “phosphorylation level of ERK” value in [12] (24 h post-infection, western blot) is recorded as “promoted”.
